Source: patent US9403874B2, “Peptides and use thereof” (IL YANG PHARM. CO.,LTD., priority 2012, dated 2016)

How the values were obtained:
Format in all cases: cell-based
Details in all cases: 100 ng/me of peptide; EBV-infected B cells stimulated with anti-CD150; ELISA of culture supernatant
[1] = test system: IL-6; test: Reduction of IL-6 secretion in activated B cells (ELISA)
Protocol: (§1) In order to determine the activity of the novel peptides synthesized in Example 1 for reducing the secretion of inflammatory cytokines, the activated pathogenic B cells were treated with each of the 18 types of synthesized novel peptides and the reduction in secretion of inflammatory cytokines from the B cells was monitored.
(§2) Specifically, in order to determine whether the novel peptides could weaken the pathogenic B cells which are involved in the development of disease symptoms, the in vitro B cells model which is similar to the joint infiltrative B cells of rheumatoid arthritis was used. The activated pathogenic B cell was generated by stimulating Ebstein Barr virus (EBV)-infected B cells with anti-CD150 antibodies, and the cells were treated with […] of each of the 18 types of novel peptide.
(§3) In order to confirm the effect of 18 types of novel peptides in reducing inflammatory cytokines, the secretion amount of various cytokines (IL-1A, IL-1B, IL-2, IL-4, IL-5, IL-6, IL-8, IL-10, IL-12A, IL-13, IL-17A, GM-CSF, IL-34) secreted from the activated B cells was measured. The supernatants of B cell culture were analyzed enzyme-linked immunosorbent assay (ELISA), and the difference in absorbance (450 nm-570 nm) of the color developing reagent was measured as test results. Based on the measured difference in absorbance (450 nm-570 nm) of the color developing reagent, the absorbance of cytokines secreted when treated with the 18 types of novel […] was calculated in percentage, while setting the absorbance corresponding to the cytokines secreted from the activated B cells stimulated by anti-CD150 as 100%.

[2] = test system: IL-1A; test: Reduction of IL-1A secretion in activated B cells (ELISA)
Protocol: as §1, §2, §3

[3] = test system: IL-17A; test: Reduction of IL-17A secretion in activated B cells (ELISA)
Protocol: as §1, §2, §3

[4] = test system: IL-1B; test: Reduction of IL-1B secretion in activated B cells (ELISA)
Protocol: as §1, §2, §3

[5] = test system: IL-8; test: Reduction of IL-8 secretion in activated B cells (ELISA)
Protocol: as §1, §2, §3

[6] = test system: IL-2; test: Reduction of IL-2 secretion in activated B cells (ELISA)
Protocol: as §1, §2, §3

[7] = test system: IL-34; test: Reduction of IL-34 secretion in activated B cells (ELISA)
Protocol: as §1, §2, §3

[8] = test system: IL-10; test: Reduction of IL-10 secretion in activated B cells (ELISA)
Protocol: as §1, §2, §3

[9] = test system: IL-13; test: Reduction of IL-13 secretion in activated B cells (ELISA)
Protocol: as §1, §2, §3

[10] = test system: GM-CSF; test: Reduction of GM-CSF secretion in activated B cells (ELISA)
Protocol: as §1, §2, §3

[11] = test system: IL-4; test: Reduction of IL-4 secretion in activated B cells (ELISA)
Protocol: as §1, §2, §3

[12] = test system: IL-12A; test: Reduction of IL-12A secretion in activated B cells (ELISA)
Protocol: as §1, §2, §3

[13] = test system: IL-5; test: Reduction of IL-5 secretion in activated B cells (ELISA)
Protocol: as §1, §2, §3

Substance: RTDG (SIS-1#7 peptide)
- Inhibition rate of each cytokine compared to CD150-stimulated EBV-t B cells (%) IL-6 [1]: 11.8%
- Inhibition rate of each cytokine compared to CD150-stimulated EBV-t B cells (%) IL-1A [2]: 6.3%
- Inhibition rate of each cytokine compared to CD150-stimulated EBV-t B cells (%) IL-17A [3]: 9.5%
- Inhibition rate of each cytokine compared to CD150-stimulated EBV-t B cells (%) IL-1B [4]: 5.3%
- Inhibition rate of each cytokine compared to CD150-stimulated EBV-t B cells (%) IL-8 [5]: 3.2%
- Inhibition rate of each cytokine compared to CD150-stimulated EBV-t B cells (%) IL-2 [6]: 7.4%
- Inhibition rate of each cytokine compared to CD150-stimulated EBV-t B cells (%) IL-34 [7]: 2.9%
- Inhibition rate of each cytokine compared to CD150-stimulated EBV-t B cells (%) IL-10 [8]: 5.3%
- Inhibition rate of each cytokine compared to CD150-stimulated EBV-t B cells (%) IL-13 [9]: 3.6%
- Inhibition rate of each cytokine compared to CD150-stimulated EBV-t B cells (%) GM-CSF [10]: 4.5%
- Inhibition rate of each cytokine compared to CD150-stimulated EBV-t B cells (%) IL-4 [11]: 10.2%
- Inhibition rate of each cytokine compared to CD150-stimulated EBV-t B cells (%) IL-12A [12]: 11.4%
- Inhibition rate of each cytokine compared to CD150-stimulated EBV-t B cells (%) IL-5 [13]: 3.5%

Substance: RDGRTDGRTD (SIS-1#8 peptide)
- Inhibition rate of each cytokine compared to CD150-stimulated EBV-t B cells (%) IL-6 [1]: 23.8%
- Inhibition rate of each cytokine compared to CD150-stimulated EBV-t B cells (%) IL-1A [2]: 30.2%
- Inhibition rate of each cytokine compared to CD150-stimulated EBV-t B cells (%) IL-17A [3]: 30.1%
- Inhibition rate of each cytokine compared to CD150-stimulated EBV-t B cells (%) IL-1B [4]: 25.9%
- Inhibition rate of each cytokine compared to CD150-stimulated EBV-t B cells (%) IL-8 [5]: 29.2%
- Inhibition rate of each cytokine compared to CD150-stimulated EBV-t B cells (%) IL-2 [6]: 33.0%
- Inhibition rate of each cytokine compared to CD150-stimulated EBV-t B cells (%) IL-34 [7]: 19.8%
- Inhibition rate of each cytokine compared to CD150-stimulated EBV-t B cells (%) IL-10 [8]: 10.0%
- Inhibition rate of each cytokine compared to CD150-stimulated EBV-t B cells (%) IL-13 [9]: 33.5%
- Inhibition rate of each cytokine compared to CD150-stimulated EBV-t B cells (%) GM-CSF [10]: 19.8%
- Inhibition rate of each cytokine compared to CD150-stimulated EBV-t B cells (%) IL-4 [11]: 18.9%
- Inhibition rate of each cytokine compared to CD150-stimulated EBV-t B cells (%) IL-12A [12]: 19.2%
- Inhibition rate of each cytokine compared to CD150-stimulated EBV-t B cells (%) IL-5 [13]: 12.0%

Substance: TDG (SIS-1#11 peptide)
- Inhibition rate of each cytokine compared to CD150-stimulated EBV-t B cells (%) IL-6 [1]: 8.1%
- Inhibition rate of each cytokine compared to CD150-stimulated EBV-t B cells (%) IL-1A [2]: 6.0%
- Inhibition rate of each cytokine compared to CD150-stimulated EBV-t B cells (%) IL-17A [3]: 6.3%
- Inhibition rate of each cytokine compared to CD150-stimulated EBV-t B cells (%) IL-1B [4]: 2.7%
- Inhibition rate of each cytokine compared to CD150-stimulated EBV-t B cells (%) IL-8 [5]: 4.2%
- Inhibition rate of each cytokine compared to CD150-stimulated EBV-t B cells (%) IL-2 [6]: 3.2%
- Inhibition rate of each cytokine compared to CD150-stimulated EBV-t B cells (%) IL-34 [7]: 7.2%
- Inhibition rate of each cytokine compared to CD150-stimulated EBV-t B cells (%) IL-10 [8]: 4.2%
- Inhibition rate of each cytokine compared to CD150-stimulated EBV-t B cells (%) IL-13 [9]: 5.9%
- Inhibition rate of each cytokine compared to CD150-stimulated EBV-t B cells (%) GM-CSF [10]: 4.2%
- Inhibition rate of each cytokine compared to CD150-stimulated EBV-t B cells (%) IL-4 [11]: 19.5%
- Inhibition rate of each cytokine compared to CD150-stimulated EBV-t B cells (%) IL-12A [12]: 6.8%
- Inhibition rate of each cytokine compared to CD150-stimulated EBV-t B cells (%) IL-5 [13]: 10.8%

Substance: RDG (SIS-1#14 peptide)
- Inhibition rate of each cytokine compared to CD150-stimulated EBV-t B cells (%) IL-6 [1]: 1.5%
- Inhibition rate of each cytokine compared to CD150-stimulated EBV-t B cells (%) IL-1A [2]: 7.2%
- Inhibition rate of each cytokine compared to CD150-stimulated EBV-t B cells (%) IL-17A [3]: 7.7%
- Inhibition rate of each cytokine compared to CD150-stimulated EBV-t B cells (%) IL-1B [4]: 5.3%
- Inhibition rate of each cytokine compared to CD150-stimulated EBV-t B cells (%) IL-8 [5]: 5.7%
- Inhibition rate of each cytokine compared to CD150-stimulated EBV-t B cells (%) IL-2 [6]: 10.2%
- Inhibition rate of each cytokine compared to CD150-stimulated EBV-t B cells (%) IL-34 [7]: 4.2%
- Inhibition rate of each cytokine compared to CD150-stimulated EBV-t B cells (%) IL-10 [8]: 10.4%
- Inhibition rate of each cytokine compared to CD150-stimulated EBV-t B cells (%) IL-13 [9]: 4.4%
- Inhibition rate of each cytokine compared to CD150-stimulated EBV-t B cells (%) GM-CSF [10]: 0.3%
- Inhibition rate of each cytokine compared to CD150-stimulated EBV-t B cells (%) IL-4 [11]: 3.0%
- Inhibition rate of each cytokine compared to CD150-stimulated EBV-t B cells (%) IL-12A [12]: 2.9%
- Inhibition rate of each cytokine compared to CD150-stimulated EBV-t B cells (%) IL-5 [13]: 11.0%
